Assays:
prostate cancer cell = conditions: by reducing E-cadherin expression; reported [63, 64]; cited from earlier work
androgen receptor (AR) = biological target: T1, androgen receptor (AR) (Homo sapiens, UniProt P10275); conditions: reported [28, 63, 64]; cited from earlier work
T1 sequence (P10275 1-920): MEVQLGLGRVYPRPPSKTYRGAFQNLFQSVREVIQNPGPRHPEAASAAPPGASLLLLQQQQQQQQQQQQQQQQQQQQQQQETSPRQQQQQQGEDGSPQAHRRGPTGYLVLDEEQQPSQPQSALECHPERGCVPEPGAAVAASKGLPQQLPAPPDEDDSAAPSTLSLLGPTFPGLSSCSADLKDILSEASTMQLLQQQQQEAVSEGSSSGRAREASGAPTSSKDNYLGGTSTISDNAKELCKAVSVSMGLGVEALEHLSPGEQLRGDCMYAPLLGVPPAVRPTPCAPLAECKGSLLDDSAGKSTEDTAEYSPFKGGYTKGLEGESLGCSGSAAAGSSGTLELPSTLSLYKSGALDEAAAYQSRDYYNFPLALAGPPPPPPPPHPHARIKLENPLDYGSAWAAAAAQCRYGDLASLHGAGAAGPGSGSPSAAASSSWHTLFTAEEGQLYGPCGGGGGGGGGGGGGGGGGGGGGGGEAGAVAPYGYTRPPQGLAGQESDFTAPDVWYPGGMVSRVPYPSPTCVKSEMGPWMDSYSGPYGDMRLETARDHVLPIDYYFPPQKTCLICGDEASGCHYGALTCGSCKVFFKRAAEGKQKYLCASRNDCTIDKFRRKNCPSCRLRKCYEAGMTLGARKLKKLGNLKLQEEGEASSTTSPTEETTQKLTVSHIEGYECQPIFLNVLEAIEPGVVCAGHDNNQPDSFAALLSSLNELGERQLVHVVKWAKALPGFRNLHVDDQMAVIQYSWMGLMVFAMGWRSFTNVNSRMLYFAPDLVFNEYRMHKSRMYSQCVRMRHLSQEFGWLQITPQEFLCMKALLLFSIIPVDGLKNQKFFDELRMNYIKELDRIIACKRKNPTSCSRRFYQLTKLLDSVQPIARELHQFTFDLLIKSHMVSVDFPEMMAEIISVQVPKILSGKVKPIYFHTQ

estrogen receptor R (ER) = estrogen receptor R (ER) (Homo sapiens, UniProt Q92731); conditions: reported [63, 64]; cited from earlier work
estrogen receptor R (ER), sequence (Q92731 whole entry): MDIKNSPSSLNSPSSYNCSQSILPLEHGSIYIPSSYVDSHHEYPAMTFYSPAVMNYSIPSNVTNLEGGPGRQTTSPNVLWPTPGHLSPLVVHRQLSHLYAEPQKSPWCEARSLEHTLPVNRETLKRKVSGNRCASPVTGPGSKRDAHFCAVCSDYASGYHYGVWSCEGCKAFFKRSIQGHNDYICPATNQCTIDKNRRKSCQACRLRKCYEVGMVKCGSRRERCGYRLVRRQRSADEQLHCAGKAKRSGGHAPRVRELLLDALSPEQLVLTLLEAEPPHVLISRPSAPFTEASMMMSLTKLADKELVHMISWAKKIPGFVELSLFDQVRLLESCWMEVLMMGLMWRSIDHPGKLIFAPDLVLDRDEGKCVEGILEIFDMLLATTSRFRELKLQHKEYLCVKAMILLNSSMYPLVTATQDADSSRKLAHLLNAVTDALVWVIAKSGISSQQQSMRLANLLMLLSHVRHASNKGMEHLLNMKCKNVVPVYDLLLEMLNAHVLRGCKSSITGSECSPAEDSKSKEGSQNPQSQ

T helper 17 (TH17) cells = conditions: reported [30]; cited from earlier work
Clostridioides difficile = conditions: known [36, 40, 41]; cited from earlier work
C. difficile VPI10463 = assay: Bacterial growth inhibition assay (OD 600); assay type: cell-based, Clostridioides difficile; conditions: toxin-producing strain
Source text: (§1) Clostridioides difficile strain 630 (ATCC BAA-1382), Clostridioides difficile VPI 10463 (ATCC 43255), vancomycin-resistant Enterococcus faecium (ATCC 700221), Streptococcus dysgalactiae subsp. equisimilis (ATCC 12394), carbapenemase-resistant Klebsiella pneumoniae (ATCC BAA-1705), and Salmonella enterica subsp. enterica (ATCC 14028) were purchased from the American Type Culture Collection (ATCC).
(§2) From fresh colonies grown on BHK blood agar plates (Kyokuto), a primary suspension adjusted to OD 600 of 0.63 was prepared in WCA medium. Subsequently, the secondary suspension was prepared by diluting 100 μL of primary suspension into a total of 2.4 mL of medium. 10 μL of secondary suspension was inoculated to a total of 200 μL of medium containing varying concentrations ([…], 6.25, 12.5, 25, and 50 μM) of bile acids; DCA, LCA, 3-oxoLCA, 3-oxoalloLCA, isoLCA, alloLCA, and isoalloLCA. The growth of bacteria was monitored every 0.5-1 hr by OD 600 measurement using a microplate reader (Sunrise Thermo, Tecan) set at 37° C. with a 60 see shaking before each time point. For determining the minimal inhibitory concentration, 10 μL of secondary suspension was inoculated into a total of 200 μL of medium containing 0.25 to 50 μM of isoalloLCA.

C. difficile 630 [1] = assay: Bacterial growth inhibition assay (OD 600); assay type: cell-based, Clostridioides difficile
Source text: as §1, §2
Therefore, next, it was investigated whether 3-oxoLCA and isoalloLCA had the ability to inhibit the growth of C. difficile. […]

human fecal microbiota = assay: Culturing human feces with bile acids, 16S rRNA gene sequencing; assay type: cell-based; conditions: 50 μM, 48 hr
Protocol: Human fecal culture was conducted in 96-deep well plates (Treff Lab) using stool samples obtained from young and healthy donors. […] Fecal cultures with a final concentration of 50 μM bile acids (LCA, 3-oxoLCA, and isoalloLCA) were incubated anaerobically for 48 hr at 37° C. DNA was extracted from the fecal sample culture for 16S metagenomic sequencing as described above.
In addition, in order to assess the effects of isoalloLCA on the complex normal intestinal microbiota, human fecal microbiota from young, healthy sample donors were cultured using isoalloLCA, 3-oxoLCA, LCA, or control systems and analyzed for bacterial microbiota changes by 16S rRNA gene sequencing.

[2] = tested on: gram-negative symbiotic bacteria; assay: Growth inhibition of intestinal symbiotic bacteria; assay type: cell-based; conditions: most gram-negative symbiotic bacteria such as Bacteroides; WCA and BHI media
gram-negative pathogens = assay: Bacterial growth inhibition assay, gram-negative pathogen panel; assay type: cell-based; conditions: all bacteria in the gram-negative pathogen panel
[3] = tested on: gram-positive symbiotic bacteria; assay: Growth inhibition of intestinal symbiotic bacteria; assay type: cell-based
[4] = tested on: C. sporogenes, C. indolis, and C. HGF2 (innocuum); assay: Scanning electron microscopy of symbiotic bacteria; assay type: cell-based; conditions: 2.5 μM isoalloLCA, 5 hours, WCA medium
Protocol: FIG. 16B is a set of photographs showing typical results obtained by observing C. difficile 630, C. sporogenes, C. indoli, and C. HGF2 (innocuum) with a scanning electron microscope after culturing for 5 hours in a WCA medium containing control or 2.5 μM isoalloLCA. […] Scale bars indicate 5.0 μm and 1.0 μm. The arrowheads indicate a shape change after isoalloLCA treatment.
(§3) Bacterial cultures incubated with or without isoalloLCA were collected after 5 hr incubation for electron microscopy samples. For scanning electron microscopy, 10-30 μL of culture was spotted on the Nano percolator membrane (JEOL) and fixed in freshly prepared 2.5% glutaraldehyde solution. After overnight fixation at 4° C., samples were washed in 0.1 M phosphate buffer (pH 7.4, Muto Pure Chemicals), fixed with 1.0% osmium tetroxide (TAAB Laboratories) for 2 hr at 4° C., and treated with a series of increasing concentrations of ethanol. Samples were dried up with critical point dryer (CPD300, Leica Biosystems) and coated with about 2 nm thickness of osmium using a conductive osmium coater (Neoc-ST, Meiwafosis). SEM images were acquired using the SU6600 (Hitachi High Tech) at electron voltage of 5 keV.

VRE = assay: Electron microscopy (SEM/TEM) after isoalloLCA treatment; assay type: cell-based, Enterococcus faecium; conditions: 8 μM isoalloLCA, 5 hours, WCA medium
Protocol: (§4) FIG. 4C is typical scanning electron microscope images (SEM, left panels) and transmission electron microscope images (TEM, right panels) when C. difficile 630 and VRE were cultured for 5 hours in a WCA medium containing or not containing 8 μM isoalloLCA. The scale bars indicate 1.0 μm (SEM), 200 nm (C. difficile 630 TEM), and 500 nm (VRE TEM). The arrows indicate the shape change after isoalloLCA treatment.
as §3
(§5) For transmission electron microscopy, microbial pellets were prepared by centrifugation (13,000 rpm, 2 min) from 25 mL bacterial cultures. […]

Lactobacillus strain = assay: Growth inhibition of intestinal symbiotic bacteria; assay type: cell-based
C. difficile 630 [5] = assay: Electron microscopy (SEM/TEM) after isoalloLCA treatment; assay type: cell-based, Clostridioides difficile; conditions: 8 μM isoalloLCA, 5 hours, WCA medium
Protocol: as §4, §3, §5

[6] = tested on: vancomycin-resistant Enterococcus faecium (VRE); assay: Bacterial growth inhibition assay (OD 600); assay type: cell-based
Source text: as §1, §2

Treg cells = conditions: reported [30]; cited from earlier work
[7] = compared to other bile acid compounds

## C[C@]12CC[C@H](O)C[C@@H]1CC[C@@H]1[C@@H]2CC[C@]2(C)[C@@H](O)CC[C@@H]12 [3β-androstanediol]
Prostate cancer cell
  prostate cancer cell migration: inhibits prostate cancer cell migration
Androgen receptor (AR)
  binding to AR: without binding to AR
Estrogen receptor R (ER)
  estrogen receptor activation: activates estrogen receptor R (ER)

## C[C@H](CCC(=O)O)[C@H]1CC[C@H]2[C@@H]3CC[C@@H]4CC(=O)CC[C@]4(C)[C@H]3CC[C@]12C [St 3-oxoLCA, 3-Oxo-lithocholic acid, reference compound]
T helper 17 (TH17) cells
  TH17 cell suppression: suppress T helper 17 (TH17) cells

## C[C@H](CCC(=O)O)[C@H]1CC[C@H]2[C@@H]3CC[C@@H]4C[C@@H](O)CC[C@]4(C)[C@H]3CC[C@]12C [isoLCA, Iso-lithocholic acid]
T helper 17 (TH17) cells
  TH17 cell suppression: suppress T helper 17 (TH17) cells
Clostridioides difficile
  inhibition of growth of Clostridioides difficile: inhibiting the growth

## C[C@H](CCC(=O)O)[C@H]1CC[C@H]2[C@@H]3CC[C@H]4C[C@@H](O)CC[C@]4(C)[C@H]3CC[C@]12C [isoalloLCA, Iso-allo-lithocholic acid]
C. difficile VPI10463
  growth inhibition: Strong growth inhibition
C. difficile 630 [1]; WCA medium
  minimum inhibitory concentration (MIC90) required to prevent growth of 90% or more: 2.0 µM
C. difficile 630 [1]; in vitro, optical density over time
  growth inhibition: strongly inhibited the growth
Human fecal microbiota; [7]
  change in gram-negative bacteria (Bacteroides, Alistipes): corresponding increase
  change in gram-positive bacteria (Clostridium, Faecalibacterium, Bifidobacterium, Streptococcus): more pronounced decrease
Human fecal microbiota; feces of young healthy donors
  α-diversity (Shannon index) of fecal culture: not significantly affected
Human fecal microbiota; phylum level
  bacterial community structure: clear widespread change in the bacterial community structure
[2]
  effect on growth: did not significantly affect the growth
gram-negative pathogens
  resistant at the highest concentration tested: > 50 µM
[3]
  MIC90 value of the symbiotic strains relative to pathogens: generally higher than that of the pathogens
[3]; BHI medium rich in peptone and amino acids
  resistance of symbiotic strain in BHI medium compared to WCA medium: increased resistance
[3]; WCA and BHI media
  effect on growth: reliably inhibited the growth
[4]
  cell wall structure by scanning electron microscopy: cell wall structure of the symbiotic bacteria was maintained
VRE
  bactericidal effect, morphological and hyperfine structure changes: bactericidal and results in morphological changes and hyperfine structure changes
Lactobacillus strain
  resistance to the inhibitory effect: highly resistant
C. difficile 630 [5]
  bactericidal effect, morphological and hyperfine structure changes: bactericidal and results in morphological changes and hyperfine structure changes
[6]
  growth inhibition: Strong growth inhibition
Treg cells
  Treg cell induction: induces Treg cells
